Measurements published in patent US10584115B2, “Substituted pyridine and pyrazine BMI-1 inhibitors” (PTC Therapeutics, Inc., priority 2013, dated 2020).
Where two headings read alike, the source gives them in different places.

Tested on: Bmi-1 protein
Experiment: Sandwich ELISA Assay (Bmi-1 protein level in HT-1080 cells after compound treatment)
Format: cell-based
Description: Cell Seeding and Compound Treatment (Day 1):
HT-1080 cells were seeded at 8000 cells/well (50 μL) in 96-well tissue culture plates. After the cells became adherent (3-4 hours), 2× diluted stocks of test compounds in 50 μL DMEM containing 1% DMSO (final DMSO concentration was 0.5%) were added and the plates were incubated at 37° C. under 5% CO2 for 40-48 hours.
ELISA Plate First Antibody Preparation (Day 2):
The First Antibody (Millipore Mouse, monoclonal to mouse Bmi-1, clone F6, catalog #05-637) diluted to […] in PBS was added (100 μL) to each well of a Nunc MaxiSorp 96-well ELISA plate. The plate was covered with a plate seal and allowed to stand overnight.
Cell Lysate Preparation (Day 3):
Fresh Lysis buffer (1×) was prepared on the day of the assay as follows: 1 mM EDTA, 150 mM NaCl, 0.5% Triton-X 100, 10 mM NaF, 20 mM B-Glycerophosphate, 1 mM DTT (in PBS, pH 7.2-7.4) and HALT protease inhibitor cocktail (lx) (Pierce #78410).
A standard curve was prepared at the following Bmi-1 concentrations: 8000, 4000, 2000, 1000, 500, 250, 125 and 0 pg/mL. The Bmi-1 Recombinant Protein Standard (Novus Biologicals PCGF4 Recombinant Protein (P01), catalog # H00000648-P01) used to prepare the standard curve was stored at −80° C. On first thaw, the Recombinant Protein Standard was diluted to 10 μg/L in Blocking Buffer (1% BSA in PBS; BSA: Fisher Scientific Catalog #1600-100). Aliquots were taken and refrozen at −80° C. The aliquots may be kept at 4° C. and reused after first thaw, but only within 1-2 weeks. The Recombinant Protein Standard contains a GST-fusion tag that appears at approximately 70 Kda on Western Blot.
The prepared ELISA plate was washed 3× with Wash Buffer (0.05% Tween-20 in PBS). The final wash was removed from the plate and the plate was blotted dry. Blocking Buffer (300 μL) (1% BSA in PBS) was added to each well. The plate was covered with a plate seal and incubated at room temperature for 1 hour. The blocked plate was washed 3× with Wash Buffer, then the final wash was removed and the plate was blotted dry. The previously prepared samples and standards were added ([…]) and the plate was covered with a plate seal and incubated at 4° C. overnight.
The prepared ELISA plate was removed from incubation and allowed to stand at room temperature for 30 minutes, then washed and blotted dry. The Second Antibody (Cell Signaling Rabbit anti-Bmi-1, Cat #2830) diluted to 1:600 in Blocking Buffer was added (100 μL) to each well, except as needed for background control wells. The plate was covered with a plate seal and incubated for 1.5 hrs at room temperature.
The ELISA plate was washed and blotted dry as previously described. The Third Antibody (Cell Signaling HRP conjugated anti-rabbit IgG (CellSignaling, Cat #:7074) diluted to 1:300 in Blocking Buffer was added (100 μL) to each well, except as needed for background control wells. The plate was incubated for 1 hr at room temperature.
The plate was washed and blotted dry, then a previously prepared TMB substrate (TMB substrate kit, Pierce catalog #34021) (prepared by mixing kit reagents 1:1) (100 μL) was added per well. The plate was incubated for 20-30 minutes at room temperature in the dark, then Stop Solution (2 M sulfuric acid in water) (50 μL) was added per well. The plates were read at OD450 (experimental) and OD570 (reference).

[1] = Table 1, Bmi-1 sandwich ELISA, read-out: ELISA EC50 value for Bmi-1 protein
[2] = read-out: ELISA EC50 value for Bmi-1 protein, Table 1, Bmi-1 sandwich ELISA

EC50 [1] | SMILES | EC50 [2]
1 to 10 nM | N#Cc1cc(Nc2ccc(OC(F)F)cc2)nc(-c2c(C(F)(F)F)nc3ccccn23)c1 [Cpd 217, 2-{[4-(difluoromethoxy)phenyl]amino}-6-[2-(trifluoromethyl)imidazo[1,2-a]pyridin-3-yl]pyridine-4-carbonitrile] | –
10 to 100 nM | OCc1cc(Nc2ccc(C(F)(F)F)cc2)nc(-c2c(C(F)(F)F)nc3ccccn23)c1 [Cpd 219, (2-[2-(trifluoromethyl)imidazo[1,2-a]pyridin-3-yl]-6-{[4-(trifluoromethyl)phenyl]amino}pyridin-4-yl)methanol] | –
– | FC(F)(F)c1ccc(Nc2cncc(-c3c(C(F)(F)F)nc4n3CCCC4)n2)cc1 [Cpd 232, N-[4-(trifluoromethyl)phenyl]-6-[2-(trifluoromethyl)-5,6,7,8-tetrahydroimidazo[1,2-a]pyridin-3-yl]pyrazin-2-amine] | 1 to 10 nM
1 to 10 nM | FC(F)Oc1ccc(Nc2cncc(-c3c(C(F)(F)F)nc4n3CCCC4)n2)cc1 [Cpd 233, N-[4-(difluoromethoxy)phenyl]-6-[2-(trifluoromethyl)-5,6,7,8-tetrahydroimidazo[1,2-a]pyridin-3-yl]pyrazin-2-amine] | –
10 to 100 nM | FC(F)(F)Oc1ccc(Nc2cncc(-c3c(C(F)(F)F)nc4n3CCCC4)n2)cc1 [Cpd 234, N-[4-(trifluoromethoxy)phenyl]-6-[2-(trifluoromethyl)-5,6,7,8-tetrahydroimidazo[1,2-a]pyridin-3-yl]pyrazin-2-amine] | –
– | N#Cc1cc(Nc2ccc(C(F)(F)F)cc2)nc(-c2c(C(F)(F)F)nc3n2CCCC3)c1 [Cpd 236, 2-{[4-(trifluoromethyl)phenyl]amino}-6-[2-(trifluoromethyl)-5,6,7,8-tetrahydroimidazo[1,2-a]pyridin-3-yl]pyridine-4-carbonitrile] | 10 to 100 nM
1 to 10 nM | N#Cc1cc(Nc2ccc(OC(F)F)cc2)nc(-c2c(C(F)(F)F)nc3n2CCCC3)c1 [Cpd 237, 2-{[4-(difluoromethoxy)phenyl]amino}-6-[2-(trifluoromethyl)-5,6,7,8-tetrahydroimidazo[1,2-a]pyridin-3-yl]pyridine-4-carbonitrile] | –
100 to 3000 nM | N#Cc1cc(Nc2ccc(OC(F)(F)F)cc2)nc(-c2c(C(F)(F)F)nc3n2CCCC3)c1 [Cpd 238, 2-{[4-(trifluoromethoxy)phenyl]amino}-6-[2-(trifluoromethyl)-5,6,7,8-tetrahydroimidazo[1,2-a]pyridin-3-yl]pyridine-4-carbonitrile] | –
100 to 3000 nM | CC(N)c1ccc(Nc2cc(C#N)cc(-c3c(C(F)(F)F)nc4ccccn34)n2)cc1 (centres unmarked) [Cpd 257, 2-(4-(1-aminoethyl)phenylamino)-6-(2-(trifluoromethyl)imidazo[1,2-a]pyridin-3-yl)isonicotinonitrile] | –
– | COc1ccc(Nc2ccc(N)c(-c3c(C(F)(F)F)nc4ccccn34)n2)cc1 [Cpd 282, N^2-(4-methoxyphenyl)-6-[2-(trifluoromethyl)imidazo[1,2-a]pyridin-3-yl]pyridine-2,5-diamine] | 100 to 3000 nM
– | Cc1nc(Cl)c(Cl)n1-c1cncc(Nc2ccc(C(F)(F)F)cc2)n1 [Cpd 297, 6-(4,5-dichloro-2-methyl-1H-imidazol-1-yl)-N-[4-(trifluoromethyl)phenyl]pyrazin-2-amine] | 100 to 3000 nM
100 to 3000 nM | Cc1cnc(C)n1-c1cncc(Nc2ccc(C(F)(F)F)cc2)n1 [Cpd 355, 6-(2,5-dimethyl-1H-imidazol-1-yl)-N-[4-(trifluoromethyl)phenyl]pyrazin-2-amine] | –
100 to 3000 nM | CCc1cnc(C)n1-c1cncc(Nc2ccc(C(F)(F)F)cc2)n1 [Cpd 372, 6-(5-ethyl-2-methyl-1H-imidazol-1-yl)-N-[4-(trifluoromethyl)phenyl]pyrazin-2-amine] | –
100 to 3000 nM | Cc1cc2nc(C)n(-c3cc(C#N)cc(Nc4ccc(C(F)(F)F)cc4)n3)c2cc1C [Cpd 389, 2-{[4-(trifluoromethyl)phenyl]amino}-6-(2,5,6-trimethyl-1H-benzimidazol-1-yl)pyridine-4-carbonitrile] | –
100 to 3000 nM | CCO/C=C\c1cn(-c2cncc(Nc3ccc(C(F)(F)F)cc3)n2)c(C)n1 [Cpd 391, 6-{4-[(Z)-2-ethoxyethenyl]-2-methyl-1H-imidazol-1-yl}-N-[4-(trifluoromethyl)phenyl]pyrazin-2-amine] | –
100 to 3000 nM | CCc1ccc2nc(C)n(-c3cncc(Nc4ccc(C(F)(F)F)cc4)n3)c2c1 [Cpd 392, 6-(6-ethyl-2-methyl-1H-benzimidazol-1-yl)-N-[4-(trifluoromethyl)phenyl]pyrazin-2-amine] | –
10 to 100 nM | Cc1cc(C)c2nc(C)n(-c3cncc(Nc4ccc(C(F)(F)F)cc4)n3)c2c1 [Cpd 421, N-[4-(trifluoromethyl)phenyl]-6-(2,4,6-trimethyl-1H-benzimidazol-1-yl)pyrazin-2-amine] | –
10 to 100 nM | Cc1nc2c(F)cccc2n1-c1cc(C#N)cc(Nc2ccc(C(F)(F)F)cc2)n1 [Cpd 435, 2-(4-fluoro-2-methyl-1H-benzimidazol-1-yl)-6-{[4-(trifluoromethyl)phenyl]amino}pyridine-4-carbonitrile] | –
10 to 100 nM | Cc1nc2c(F)cccc2n1-c1cc(C#N)cc(Nc2ccc(OC(F)F)cc2)n1 [Cpd 436, 2-{[4-(difluoromethoxy)phenyl]amino}-6-(4-fluoro-2-methyl-1H-benzimidazol-1-yl)pyridine-4-carbonitrile] | –
10 to 100 nM | Cc1nc2c(F)cc(F)cc2n1-c1cc(C#N)cc(Nc2ccc(C(F)(F)F)cc2)n1 [Cpd 447, 2-(4,6-difluoro-2-methyl-1H-benzimidazol-1-yl)-6-{[4-(trifluoromethyl)phenyl]amino}pyridine-4-carbonitrile] | –
10 to 100 nM | Cc1nc2c(F)cc(F)cc2n1-c1cc(C#N)cc(Nc2ccc(OC(F)F)cc2)n1 [Cpd 448, 2-{[4-(difluoromethoxy)phenyl]amino}-6-(4,6-difluoro-2-methyl-1H-benzimidazol-1-yl)pyridine-4-carbonitrile] | –
100 to 3000 nM | Cc1nc2c(F)cc(F)cc2n1-c1cc(C#N)cc(Nc2ccc(OC(F)(F)F)cc2)n1 [Cpd 449, 2-(4,6-difluoro-2-methyl-1H-benzimidazol-1-yl)-6-{[4-(trifluoromethoxy)phenyl]amino}pyridine-4-carbonitrile] | –
– | Cc1nc2ccccc2n1-c1cc(N)cc(Nc2ccc(C(F)(F)F)cc2)n1 [Cpd 492, 6-(2-methyl-1H-benzimidazol-1-yl)-N^2-[4-(trifluoromethyl)phenyl]pyridine-2,4-diamine] | 10 to 100 nM
100 to 3000 nM | Cc1nc2ccccc2n1-c1cc(F)cc(Nc2ccc(C(F)(F)F)cc2[N+](=O)[O-])n1 [Cpd 493, 4-fluoro-6-(2-methyl-1H-benzimidazol-1-yl)-N-[2-nitro-4-(trifluoromethyl)phenyl]pyridin-2-amine] | –
10 to 100 nM | Cc1nc2ccccc2n1-c1cc(F)cc(Nc2ccc(C(F)(F)F)cc2)n1 [Cpd 494, 4-fluoro-6-(2-methyl-1H-benzimidazol-1-yl)-N-[4-(trifluoromethyl)phenyl]pyridin-2-amine] | –
– | COc1ccc(Nc2nc(-n3c(C)nc4ccccc43)ccc2N)cc1 [Cpd 518, N^2-(4-methoxyphenyl)-6-(2-methyl-1H-benzimidazol-1-yl)pyridine-2,3-diamine] | 10 to 100 nM
1 to 10 nM | Cc1ccc(Nc2cccc(-n3c(C)nc4ccccc43)n2)cc1 [Cpd 581, 6-(2-methyl-1H-benzimidazol-1-yl)-N-(4-methylphenyl)pyridin-2-amine] | –
10 to 100 nM | Cc1nc2ccc(F)cc2n1-c1cccc(Nc2ccc(OC(F)F)cc2)n1 [Cpd 584, N-[4-(difluoromethoxy)phenyl]-6-(6-fluoro-2-methyl-1H-benzimidazol-1-yl)pyridin-2-amine] | –
100 to 3000 nM | Cc1nc2ccc(F)cc2n1-c1cccc(Nc2ccc(OC(F)(F)F)cc2)n1 [Cpd 585, 6-(6-fluoro-2-methyl-1H-benzimidazol-1-yl)-N-[4-(trifluoromethoxy)phenyl]pyridin-2-amine] | –
